test system: T1, CutA (TtCutA); experiment: fluorescence anisotropy competition with ATP-Cy5; format: binding, Thermothielavioides terrestris
T1 construct: TtCutA^240-603

SMILES	IC50
Nc1ncnc2c1ncn2[C@@H]1O[C@H](COP(=O)(O)OP(=O)(O)OP(=O)(O)O)[C@@H](O)[C@H]1O [ATP]	562 ± 21 nM
Nc1ccn([C@@H]2O[C@H](COP(=O)(O)OP(=O)(O)OP(=O)(O)O)[C@@H](O)[C@H]2O)c(=O)n1 [CTP]	467 ± 16 nM
Nc1nc2c(ncn2[C@@H]2O[C@H](COP(=O)(O)OP(=O)(O)OP(=O)(O)O)[C@@H](O)[C@H]2O)c(=O)[nH]1 [GTP]	1050 ± 56 nM
O=c1ccn([C@@H]2O[C@H](CO[P@@](=O)(O)O[P@@](=O)(O)OP(=O)(O)O)[C@@H](O)[C@H]2O)c(=O)[nH]1 [UTP]	537 ± 23 nM

Source: PMC7498324, “Structure and mechanism of CutA, RNA nucleotidyl transferase with an unusual preference for cytosine” (Nucleic Acids Research, 2020)
